Test results: patent US20260285850A1, “SUBSTITUTED OXAZOLIDINONES AND IMIDAZOLINONES AS HERBICIDES” (FMC CORPORATION, priority 2023, published 2026)

Tests used:
Assay type in all cases: in vivo
corn (Zea mays) [1] = experiment: Test A preemergence soil spray, visual injury rating 0-100; conditions: 10 days
How it was run: (§1)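 Preemergence directed soil spray or postemergence spray (2-10 cm, 1-2 leaf); loam/sand mix; compound in non-phytotoxic solvent + surfactant. Greenhouse, 10 d. Visual injury vs untreated, 0 = none, 100 = complete control.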

[2] = tested on: blackgrass (Alopecurus myosuroides); experiment: as above; conditions: 10 days
How it was run: as §1

[3] = tested on: oat, wild (wild oat, Avena fatua); experiment: as above; conditions: 10 days
How it was run: as §1

kochia (Bassia scoparia) [4] = experiment: as above; conditions: 10 days
How it was run: as §1

[5] = tested on: green foxtail (Setaria viridis); experiment: as above; conditions: 10 days
How it was run: as §1

[6] = tested on: barnyardgrass (Echinochloa crus-galli); experiment: as above; conditions: 10 days
How it was run: as §1

soybean (Glycine max) [7] = experiment: as above; conditions: 10 days
How it was run: as §1

[8] = tested on: ryegrass, Italian (italian ryegrass, Lolium multiflorum); experiment: as above; conditions: 10 days
How it was run: as §1

[9] = tested on: wheat (Triticum aestivum); experiment: as above; conditions: 10 days
How it was run: as §1

[10] = tested on: ragweed (common ragweed, Ambrosia artemisiifolia); experiment: as above; conditions: 10 days
How it was run: as §1

[11] = tested on: barnyardgrass (Echinochloa crusgalli); experiment: Test B flooded paddy test, visual plant response rating 0-100; conditions: 250 g ai/ha, Flood, applied to paddy water, evaluated after 13 days
How it was run: (§2)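 Greenhouse, 13 d. Seedlings at 2-leaf stage, pots flooded to 3 cm, compound delivered into floodwater, water level held constant. Evaluated visually relative to controls.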

rice (Oryza sativa) = experiment: as above; conditions: 250 g ai/ha, Flood, applied to paddy water, evaluated after 13 days
How it was run: as §2

[12] = tested on: ducksalad (Heteranthera limosa); experiment: as above; conditions: 250 g ai/ha, Flood, applied to paddy water, evaluated after 13 days
How it was run: as §2

[13] = tested on: sedge, umbrella (small-flower umbrella sedge, Cyperus difformis); experiment: as above; conditions: 250 g ai/ha, Flood, applied to paddy water, evaluated after 13 days
How it was run: as §2

corn (Zea mays) [14] = experiment: Test A postemergence application, visual injury rating 0-100
How it was run: as §1

[15] = tested on: blackgrass (Alopecurus myosuroides); experiment: as above
How it was run: as §1

[16] = tested on: horseweed (Erigeron canadensis); experiment: as above
How it was run: as §1

[17] = tested on: oat, wild (wild oat, Avena fatua); experiment: as above
How it was run: as §1

kochia (Bassia scoparia) [18] = experiment: as above
How it was run: as §1

[19] = tested on: green foxtail (Setaria viridis); experiment: as above
How it was run: as §1

[20] = tested on: barnyardgrass (Echinochloa crus-galli); experiment: as above
How it was run: as §1

[21] = tested on: palmer (palmer amaranth, palmer pigweed, Amaranthus palmeri); experiment: as above
How it was run: as §1

soybean (Glycine max) [22] = experiment: as above
How it was run: as §1

[23] = tested on: ryegrass, Italian (italian ryegrass, Lolium multiflorum); experiment: as above
How it was run: as §1

[24] = tested on: galium (catchweed bedstraw, Galium aparine); experiment: as above
How it was run: as §1

[25] = tested on: wheat (Triticum aestivum); experiment: as above
How it was run: as §1

[26] = tested on: ragweed (common ragweed, Ambrosia artemisiifolia); experiment: as above
How it was run: as §1

[27] = 62 g ai/ha, 0 = no effect, 100 = complete control
[28] = 62 g ai/ha, postemergence, 10 days, 0 = no effect, 100 = complete control
[29] = Postemergence, 16 g ai/ha, greenhouse 10 days, 0 no effect, 100 complete control

CCOC(=O)C1=CCC(NC(=O)C2(C)CN(c3cc(F)cc(Cl)c3)C(=O)O2)C1 (centres unmarked) [Compound 134]
0: Corn plant response rating (corn (Zea mays) [1]; 16 g ai/ha, 0 to 100 scale) | Corn plant response rating (0-100) (corn (Zea mays) [1]; [27]) | Blackgrass plant response rating ([2]; 16 g ai/ha, 0 to 100 scale) | Oat, Wild plant response rating ([3]; 16 g ai/ha, 0 to 100 scale) | Oat, Wild plant response rating (0-100) [3, 27] | Kochia plant response rating (kochia (Bassia scoparia) [4]; 16 g ai/ha, 0 to 100 scale) | Kochia plant response rating (0-100) (kochia (Bassia scoparia) [4]; [27]) | Foxtail, Green plant response rating ([5]; 16 g ai/ha, 0 to 100 scale) | Foxtail, Green plant response rating (0-100) [5, 27] | Barnyardgrass plant response rating ([6]; 16 g ai/ha, 0 to 100 scale) | Barnyardgrass plant response rating (0-100) [6, 27] | Soybean plant response rating (soybean (Glycine max) [7]; 16 g ai/ha, 0 to 100 scale) | Soybean plant response rating (0-100) (soybean (Glycine max) [7]; [27]) | Ryegrass, Italian plant response rating ([8]; 16 g ai/ha, 0 to 100 scale) | Ryegrass, Italian plant response rating (0-100) [8, 27] | Wheat plant response rating ([9]; 16 g ai/ha, 0 to 100 scale) | Wheat plant response rating (0-100) [9, 27] | Ragweed plant response rating ([10]; 16 g ai/ha, 0 to 100 scale) | Ragweed plant response rating (0-100) [10, 27] | Plant response rating, Barnyardgrass (0 to 100 scale, 0 is no effect and 100 is complete control) [11] | Plant response rating, Rice (0 to 100 scale, 0 is no effect and 100 is complete control) (rice (Oryza sativa)) | Plant response rating, Ducksalad (0 to 100 scale, 0 is no effect and 100 is complete control) [12] | Plant response rating, Sedge, Umbrella (0 to 100 scale, 0 is no effect and 100 is complete control) [13] | Corn plant response rating (0-100) (corn (Zea mays) [14]; [28]) | Corn plant response rating (0 to 100 scale) (corn (Zea mays) [14]; [29]) | Blackgrass plant response rating (0-100) [15, 28] | Blackgrass plant response rating (0 to 100 scale) [15, 29] | Horseweed plant response rating (0-100) [16, 28] | Horseweed plant response rating (0 to 100 scale) [16, 29] | Oat, Wild plant response rating (0-100) [17, 28] | Oat, Wild plant response rating (0 to 100 scale) [17, 29] | Kochia plant response rating (0-100) (kochia (Bassia scoparia) [18]; [28]) | Kochia plant response rating (0 to 100 scale) (kochia (Bassia scoparia) [18]; [29]) | Foxtail, Green plant response rating (0-100) [19, 28] | Foxtail, Green plant response rating (0 to 100 scale) [19, 29] | Barnyardgrass plant response rating (0-100) [20, 28] | Barnyardgrass plant response rating (0 to 100 scale) [20, 29] | Pigweed, Palmer plant response rating (0-100) [21, 28] | Pigweed, Palmer plant response rating (0 to 100 scale) [21, 29] | Soybean plant response rating (0-100) (soybean (Glycine max) [22]; [28]) | Soybean plant response rating (0 to 100 scale) (soybean (Glycine max) [22]; [29]) | Ryegrass, Italian plant response rating (0-100) [23, 28] | Ryegrass, Italian plant response rating (0 to 100 scale) [23, 29] | Galium plant response rating (0-100) [24, 28] | Galium plant response rating (0 to 100 scale) [24, 29] | Wheat plant response rating (0-100) [25, 28] | Wheat plant response rating (0 to 100 scale) [25, 29] | Ragweed plant response rating (0-100) [26, 28] | Ragweed plant response rating (0 to 100 scale) [26, 29]
30: Blackgrass plant response rating (0-100) [2, 27]
